Measurements as given in ChEMBL document CHEMBL1151250, “A DNA-damaging oxoaporphine alkaloid from Piper caninum” (J Nat Prod, 2004).

Legend:
Format in all cases: functional, organism-based
[1] = test system: Saccharomyces cerevisiae; experiment: Antimicrobial activity against Saccharomyces cerevisiae RS321NpRAD52 in presence of galactose
[2] = test system: Saccharomyces cerevisiae; experiment: Antimicrobial activity against Saccharomyces cerevisiae RS321NpRAD52 in presence of glucose
[3] = test system: Saccharomyces cerevisiae; experiment: Antimicrobial activity against Saccharomyces cerevisiae RS321NYCp50 in presence of galactose

IC50 [1]: 115 µg/mL
IC50 [2]: 0.05 µg/mL
IC50 [3]: 0.2 µg/mL
SMILES: CN1C(=O)C(=O)c2cc3c(c4c2c1cc1ccccc14)OCO3 [CEPHARADIONE A]
